“Also recorded” adds a separate entry of the source. Read-outs that look alike come from different tables or passages of the source.
Assays:
[1] = target: T1, T1R2/T1R3 (Homo sapiens, UniProt Q7RTX0+Q8TE23); settings: Mailliet et al. (2009); read-out: IC50 for inhibition of the sucralose response of the sweet receptor (calcium imaging); cited from earlier work
T1 construct: host or cells: HEK cells overexpressing T1R2, T1R3 and G16-gust44 (Mailliet et al. 2009; Masuda et al. 2012)
T1 sequence (Q8TE23 20-839): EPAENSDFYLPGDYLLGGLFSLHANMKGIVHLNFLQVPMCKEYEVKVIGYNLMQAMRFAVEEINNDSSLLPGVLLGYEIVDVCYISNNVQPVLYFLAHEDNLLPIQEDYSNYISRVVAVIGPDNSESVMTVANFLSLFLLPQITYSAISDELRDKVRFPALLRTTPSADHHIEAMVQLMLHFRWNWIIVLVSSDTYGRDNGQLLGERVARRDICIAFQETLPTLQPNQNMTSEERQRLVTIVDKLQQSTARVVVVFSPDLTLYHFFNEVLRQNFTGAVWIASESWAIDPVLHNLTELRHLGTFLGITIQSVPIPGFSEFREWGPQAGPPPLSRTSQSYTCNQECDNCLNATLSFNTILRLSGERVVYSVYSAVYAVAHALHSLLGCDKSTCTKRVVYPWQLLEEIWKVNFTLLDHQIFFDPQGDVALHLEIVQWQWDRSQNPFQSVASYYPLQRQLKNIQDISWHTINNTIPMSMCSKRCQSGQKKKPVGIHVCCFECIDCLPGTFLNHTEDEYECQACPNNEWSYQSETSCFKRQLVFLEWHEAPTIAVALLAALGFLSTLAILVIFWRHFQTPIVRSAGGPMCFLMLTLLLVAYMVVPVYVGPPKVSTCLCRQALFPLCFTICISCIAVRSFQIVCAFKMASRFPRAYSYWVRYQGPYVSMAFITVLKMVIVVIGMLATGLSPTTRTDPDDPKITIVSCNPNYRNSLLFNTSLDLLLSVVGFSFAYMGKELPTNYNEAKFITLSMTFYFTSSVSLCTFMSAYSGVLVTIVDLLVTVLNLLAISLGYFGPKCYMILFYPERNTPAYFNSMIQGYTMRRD
T1 sequence (Q7RTX0 21-852): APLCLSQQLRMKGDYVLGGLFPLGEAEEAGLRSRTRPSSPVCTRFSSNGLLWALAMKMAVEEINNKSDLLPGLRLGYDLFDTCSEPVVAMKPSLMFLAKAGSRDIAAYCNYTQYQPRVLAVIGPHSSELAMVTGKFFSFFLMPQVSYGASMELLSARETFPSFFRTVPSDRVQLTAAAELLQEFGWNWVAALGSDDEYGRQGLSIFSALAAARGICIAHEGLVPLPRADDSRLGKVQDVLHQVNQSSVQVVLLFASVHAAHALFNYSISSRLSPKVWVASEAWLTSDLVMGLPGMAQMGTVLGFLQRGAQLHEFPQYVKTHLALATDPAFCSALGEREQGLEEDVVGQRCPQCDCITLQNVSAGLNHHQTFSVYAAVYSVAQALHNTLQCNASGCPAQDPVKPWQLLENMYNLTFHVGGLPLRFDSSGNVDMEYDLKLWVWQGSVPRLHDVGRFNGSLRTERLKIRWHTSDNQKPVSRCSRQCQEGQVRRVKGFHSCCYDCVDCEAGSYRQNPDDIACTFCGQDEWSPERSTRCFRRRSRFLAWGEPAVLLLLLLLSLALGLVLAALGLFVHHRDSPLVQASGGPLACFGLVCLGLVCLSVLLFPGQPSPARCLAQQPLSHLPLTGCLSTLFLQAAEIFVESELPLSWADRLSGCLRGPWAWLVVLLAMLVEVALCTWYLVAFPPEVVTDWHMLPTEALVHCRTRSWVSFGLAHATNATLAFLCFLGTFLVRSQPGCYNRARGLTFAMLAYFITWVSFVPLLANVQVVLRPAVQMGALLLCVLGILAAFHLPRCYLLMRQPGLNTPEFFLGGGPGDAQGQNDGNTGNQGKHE

[2] = system: Nav1.5; assay: Patch-clamp (voltage clamp) recording of VGSC current in HEK cells stably expressing Nav1.5; settings: for IC50: read-out: IC50 (VGSC inhibition)
[3] = system: endogenous T1R GPCR of HEK cells; assay: Intracellular calcium (Cal-520) in HEK cells stably expressing Nav1.1 with endogenous T1R GPCR; type: cell-based, human; settings: 10 nM then 20 nM for Aβ1-40 and Aβ1-42
Experimental: Specifically, experiments were conducted as follows using HEK cells stably expressing Nav1.1 (FIG. 45). The calcium-sensitive reagent (Cal-520, AAT Bioquest) was incubated at 37° C. for 60 minutes, followed by incubation at room temperature for 30 minutes, and then changes in intracellular calcium were measured using a fluorescence microscope. […] Initially, 10 nM, followed by 20 nM of Aβ1-40 was applied after 5 minutes (arrow). […] A total of 6 cell groups from two independent experiments were measured, averaged by the maximum fluorescence response value, and the mean and standard error (stderr) were calculated and plotted. […] 10 nM, followed by 20 nM of Aβ1-42 was applied after 5 minutes (arrow). […] A total of 12 cell groups from two independent experiments were measured, averaged by the minimum fluorescence response value, and the mean and standard error (stderr) were calculated and plotted. Similar to the experimental results using the patch-clamp method when Aβ peptide was applied to Nav1.5, it was confirmed from intracellular calcium measurements that the effects of Aβ1-40 and Aβ1-42 were different.

[4] = system: Nav1.6; assay: Patch-clamp recording of VGSC current in HEK (Nav1.6) cells; type: cell-based, human
Excerpt: The cells used in the previous (18-1) experiment were cardiac-type VGSC cells. In this experiment, HEK (Nav1.1) and HEK (Nav1.6) cells, which are considered neuronal VGSC cells, were created. The effects of four peptides—Aβ25-35, Aβ1-38, Aβ1-40, and Aβ1-42—were examined using the same experimental protocol as in (18-1). […]

[5] = system: Nav1.5 in T1R3-silenced HEK cells; assay: VGSC current in HEK Nav1.5 cells with silenced T1R3; type: cell-based, human
Excerpt: The miRNAs Oligo (Thermofisher) used for silencing were annealed to form double-stranded DNA, which was then linked to the miR RNAi Expression Vector using T4 DNA ligase to create the knockdown vector. Specifically, the procedure followed the miR RNAi Expression Vector Kit manual (BLOCK-i™ Pol II miR RNAi Expression Vector Kit with EmGFP (Catalog number: K493600)).
Since Aβ25-35 peptide produced similar effects (enhancing VGSC activity, lowering the excitability threshold) as glutamine, it was considered that Aβ25-35 peptide might also act on T1R2/T1R3 receptors like glutamine. Therefore, in this implementation example, we used HEK-Nav1.5 cells with silenced T1R3 and compared the effect of Aβ25-35 peptide on VGSC with that in control HEK-Nav1.5 cells.
To strengthen these findings, we conducted similar experiments using HEK Nav1.5 cells in which T1R3 expression was silenced (FIG. 22). We measured VGSC currents in T1R3-silenced HEK Nav1.5 cells, applying stimuli every 8 seconds.

[6] = system: VGSC; assay: Patch-clamp recording of VGSC current, cell type not specified or several cell types (summary statements); type: cell-based, human
[7] = system: Cav1.2; assay: Intracellular calcium measurement in HEK cells stably expressing Cav1.2 after KCl depolarisation; type: cell-based, human; settings: 12.5 nM
Experimental: Specifically, experiments were conducted using a method to measure intracellular calcium concentration in HEK cells stably expressing Cav1.2. […] High concentrations of KCl depolarize the cell membrane potential by depolarizing the potassium equilibrium potential from the resting potential, activating voltage-gated calcium channels (VGCC, Cav1.2) that are activated by depolarization, and allowing extracellular calcium to flow into the cell through these calcium channels. (FIG. 47A) measures the activation process of intracellular calcium increase caused by the activation of these VGCCs.
The calcium response to high concentrations of potassium decays with a certain regularity, so the process was approximated using the Hyperbolic Decline formula
and the difference between the curve obtained (dashed line in FIG. 47A) and the experimental values was calculated to derive the enhancement of intracellular calcium by Aβ1-42 peptide.

[8] = system: HEK Nav1.5 cells; assay: GFP-Tubulin / GFP-Actin cytoskeleton observation in HEK Nav1.5 cells; type: cell-based, human
Excerpt: To observe the impact of cinacalcet and Aβ1-42 peptide on microfilament (actin) fiber structures, we labeled cells with GFP-Actin (FIG. 34). […] This experimental approach, using GFP-Tubulin, GFP-Actin, or other fluorescent proteins to label microtubules and microfilaments, can be used to screen compounds that regulate the activity of ion channels and neuronal function-controlling proteins. Additionally, simultaneous labeling of tubulin and actin can be achieved using fluorescent antibodies or phalloidin after cell fixation.

[9] = system: Kv1.2; assay: Patch-clamp recording of Kv1.2 potassium current in HEK cells expressing Kv1.2; type: cell-based, human
Experimental: The effects of Aβ peptides or umami substances on sustained potassium currents (VGKC) in cardiac myocytes can be studied using HEK cells expressing VGKC (such as Kv1.2, Kv3.2, Kv3.3) as well as SH-SY5Y cells expressing endogenous T1R GPCRs. For instance, as shown in the implementation example in (FIG. 36B), Aβ peptides were applied to VGKC-expressing human cultured cells, and VGKC currents were recorded using ramp-like or rectangular voltage waveforms via the patch-clamp technique. This allowed measurement of the changes (inhibition) in VGKC currents caused by Aβ peptides. Similar inhibition studies on VGKC can be conducted using umami substance L-glutamate sodium (MSG) (FIG. 36A).
As shown in (FIG. 37), Aβ1-42 peptide, unlike Aβ25-35 targeting T1R3, interacts with T1R1 and inhibits VGSC currents (FIGS. 37D, E).

[10] = system: Nav1.1; assay: Patch-clamp recording of VGSC current in HEK (Nav1.1) cells; type: cell-based, human
Excerpt: The cells used in the previous (18-1) experiment were cardiac-type VGSC cells. In this experiment, HEK (Nav1.1) and HEK (Nav1.6) cells, which are considered neuronal VGSC cells, were created. The effects of four peptides—Aβ25-35, Aβ1-38, Aβ1-40, and Aβ1-42—were examined using the same experimental protocol as in (18-1).

[11] = system: Nav1.6; assay: Patch-clamp recording of VGSC current in HEK (Nav1.6) cells; type: cell-based, human; settings: HEK cells expressing Nav1.6 and Kv1.2

For `CCOC(=O)C(C)(C)Oc1ccc(Cl)cc1` [Clofibrate], the IC50 [1] is given as 28 µM, the IC50 ([2]; prepulse −80 mV) is given as 0.58 mM and the IC50 ([2]; prepulse −100 mV) is given as 1.2 mM. The IC50 ([2]; prepulse −120 mV) was 1.04 mM.

With “Aβ1-42: amyloid β peptide, Sequence No. 4” the “Change in intracellular calcium” value [3] was “biphasic response; also recorded: transiently decreased, slowly recovered, and then began to increase”, the “Effect on VGSC current” value [4] was “enhancement of VGSC was observed” and the “Effect on VGSC in T1R3-silenced cells” value [5] was “is lost”. The “Effect on VGSC inactivation” value [6] was “delays the inactivation”, the “Effects on VGSCs” value [6] was “Delay in VGSC inactivation” and the “Intracellular calcium after KCl-induced Cav1.2 activation” value [7] was “further increase in intracellular calcium”. The “Enhancement of intracellular calcium relative to response to high concentrations of potassium” value ([7]; n=3) was “about 11%”, the “Microfilament structure (GFP-Actin)” value [8] was “condensed GFP-Actin structures” and the “Effect on voltage gated K+ channel (Kv1.2) current” value [9] was “reduced Kv1.2 potassium current; also recorded: concentration-dependently inhibits Kv1.2 potassium currents”. For the same molecule, the “Effect on voltage gated K+ channel (Kv1.2) current” value ([9]; listed as Aβ42 peptide) was “Inhibition of Voltage gated”, the “Effect on VGSC current” value [10] was “enhancement of VGSC was observed” and the “Effect on VGSC current” value ([2]; 12.5 nM and 25 nM) was “concentration-dependent reductions in VGSC current”. For the same molecule, the “Effect on Nav1.5 VGSC current” value ([2]; 12.5 nM, perforated patch-clamp with Gramicidin) was “enhanced; also recorded: enhancement effect”, the “Shift of I-V plot peak in the hyperpolarizing direction” value ([2]; 74 nM) was 5-10 mV and the “Effect on VGSC current” value ([2]; 74 nM, whole-cell voltage clamp, listed as Aβ1-42 peptide) was “decreasing trend; also recorded: suppressed sodium channel currents”. For the same molecule, the “Effect on Nav1.6 VGSC current” value [11] was “amplified; also recorded: enhancing effect”.
